Experimental data from ChEMBL document CHEMBL3414443, “Truncated structures used in search for new lead compounds and in a retrospective analysis of thienopyrimidine-based EGFR inhibitors” (Eur J Med Chem, 2015).

What follows are compounds tested against T1, Epidermal growth factor receptor (Homo sapiens, UniProt P00533) (assay: Inhibition of EGFR (unknown origin) using Poly(Glu:Tyr) 4:1 as substrate after 12 to 16 hrs).
T1 sequence (P00533 whole entry): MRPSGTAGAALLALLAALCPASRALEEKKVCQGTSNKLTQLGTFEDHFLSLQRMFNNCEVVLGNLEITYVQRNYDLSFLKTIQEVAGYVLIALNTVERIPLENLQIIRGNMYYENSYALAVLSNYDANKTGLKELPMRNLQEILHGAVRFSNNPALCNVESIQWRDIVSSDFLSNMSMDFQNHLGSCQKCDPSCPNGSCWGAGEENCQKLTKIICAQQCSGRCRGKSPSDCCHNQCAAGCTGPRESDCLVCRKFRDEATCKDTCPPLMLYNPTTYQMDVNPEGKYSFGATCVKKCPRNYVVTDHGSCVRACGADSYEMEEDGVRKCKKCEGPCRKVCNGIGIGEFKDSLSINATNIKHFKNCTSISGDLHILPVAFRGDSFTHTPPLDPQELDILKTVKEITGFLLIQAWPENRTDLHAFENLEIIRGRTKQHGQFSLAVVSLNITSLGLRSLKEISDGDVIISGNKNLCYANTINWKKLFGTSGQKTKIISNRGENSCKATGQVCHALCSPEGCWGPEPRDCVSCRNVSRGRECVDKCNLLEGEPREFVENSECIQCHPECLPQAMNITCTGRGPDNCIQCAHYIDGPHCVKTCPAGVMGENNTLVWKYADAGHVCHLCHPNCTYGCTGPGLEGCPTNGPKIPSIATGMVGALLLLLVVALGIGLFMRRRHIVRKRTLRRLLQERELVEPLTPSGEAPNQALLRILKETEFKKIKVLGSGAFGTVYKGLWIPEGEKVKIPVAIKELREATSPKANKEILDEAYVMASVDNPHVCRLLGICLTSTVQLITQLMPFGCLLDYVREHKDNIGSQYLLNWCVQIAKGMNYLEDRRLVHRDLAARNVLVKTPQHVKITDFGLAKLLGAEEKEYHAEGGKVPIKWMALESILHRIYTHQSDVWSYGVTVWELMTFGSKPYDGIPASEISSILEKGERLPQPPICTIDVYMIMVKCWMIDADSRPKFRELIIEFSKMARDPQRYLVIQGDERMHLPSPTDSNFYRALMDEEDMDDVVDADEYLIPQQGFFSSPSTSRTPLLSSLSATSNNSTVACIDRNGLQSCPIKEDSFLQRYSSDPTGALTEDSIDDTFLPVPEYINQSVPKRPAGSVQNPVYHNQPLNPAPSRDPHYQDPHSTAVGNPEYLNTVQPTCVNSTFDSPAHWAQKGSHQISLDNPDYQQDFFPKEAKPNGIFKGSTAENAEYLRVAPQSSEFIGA

| IC50 [µM] | SMILES |
| --- | --- |
| 0.6 | OC[C@@H](Nc1ncnc2sc(-c3ccc(CN4CCNCC4)cc3)cc12)c1ccccc1 |
| > 5 | O=C(c1ccc(-c2cc3c(N[C@H](CO)c4ccccc4)ncnc3s2)cc1)N1CCN(CCO)CC1 |
| 0.6 | OCCN1CCN(Cc2ccc(-c3cc4c(N[C@H](CO)c5ccccc5)ncnc4s3)cc2)CC1 |

What follows are compounds tested against T1, Epidermal growth factor receptor (assay: Inhibition of EGFR (unknown origin) by Z'-LYTE assay).

| IC50 [µM] | SMILES |
| --- | --- |
| 0.008 | COc1ccccc1-c1cc2c(NC(CO)c3ccccc3)ncnc2s1 (racemic) |
| > 10 | C[C@H](Nc1ncnc2sc(Br)cc12)c1ccccc1 |
| 0.15 | C[C@@H](Nc1ncnc2sc(Br)cc12)c1ccc(F)cc1 |
| 0.262 | COC[C@@H](Nc1ncnc2sc(Br)cc12)c1ccccc1 |
| 0.173 | COc1ccccc1-c1cc2c(Nc3ccccc3)ncnc2s1 |
| 3.88 | Brc1cc2c(NCc3ccncc3)ncnc2s1 |
| 0.415 | C[C@@H](Nc1ncnc2sc(Br)cc12)c1cccs1 |
| 0.108 | COc1ccccc1-c1cc2c(NCc3ccncc3)ncnc2s1 |
| 0.183 | CC[C@@H](Nc1ncnc2sc(Br)cc12)c1ccccc1 |
| 0.275 | COc1ccccc1-c1cc2c(NCc3cccnc3)ncnc2s1 |
| 0.083 | OCC(Nc1ncnc2sc(Br)cc12)c1ccccc1 (racemic) |
| 0.017 | COc1ccccc1-c1cc2c(NCc3ccccc3)ncnc2s1 |
| 0.153 | COc1ccccc1-c1cc2c(N[C@H](C)c3ccccn3)ncnc2s1 |
| 0.156 | CC(Nc1ncnc2sc(Br)cc12)c1ccccc1 (racemic) |
| 0.257 | Fc1cccc(COc2ccc(Nc3ncnc4sc(Br)cc34)cc2Cl)c1 |
| 0.023 | COC[C@@H](Nc1ncnc2sc(-c3ccccc3OC)cc12)c1ccccc1 |
| 0.027 | COc1ccccc1-c1cc2c(N[C@H](C)c3ccc(F)cc3)ncnc2s1 |
| 0.023 | C#Cc1cccc(Nc2ncnc3sc(Br)cc23)c1 |
| > 10 | Brc1cc2c(NCc3cccnc3)ncnc2s1 |
| 0.001 | COc1ccccc1-c1cc2c(N[C@H](CO)c3ccccc3)ncnc2s1 |

The remaining lines, values behind:

| SMILES | IC50 [µM] |
| --- | --- |
| COc1ccccc1-c1cc2c(Nc3ccc(F)c(Cl)c3)ncnc2s1 | 0.005 |
| C[C@@H](Nc1ncnc2sc(Br)cc12)c1ccccc1 | 0.038 |
| COc1ccccc1-c1cc2c(NCc3cccs3)ncnc2s1 | 0.17 |
| C[C@@H](Nc1ncnc2sc(Br)cc12)c1ccccn1 | 2.08 |
| COC[C@H](Nc1ncnc2sc(Br)cc12)c1ccccc1 | > 10 |
| Brc1cc2c(NCc3ccccn3)ncnc2s1 | 7.9 |
| COc1ccccc1-c1cc2c(N[C@@H](CO)c3ccccc3)ncnc2s1 | 0.629 |
| COc1ccccc1-c1cc2c(N[C@H](C)c3ccccc3)ncnc2s1 | 0.009 |
| Fc1ccc(Nc2ncnc3sc(Br)cc23)cc1Cl | 0.053 |
| Brc1cc2c(Nc3cccc(OCc4ccccc4)c3)ncnc2s1 | > 10 |
| Brc1cc2c(NCc3cccs3)ncnc2s1 | 1.37 |
| OC[C@@H](Nc1ncnc2sc(Br)cc12)c1ccccc1 | 0.036 |
| COc1ccccc1-c1cc2c(N[C@@H](C)c3ccccc3)ncnc2s1 | 1.86 |
| Brc1cc2c(Nc3ccccc3)ncnc2s1 | 0.08 |
| Brc1cc2c(NCc3ccccc3)ncnc2s1 | 0.241 |
| C#Cc1cccc(Nc2ncnc3sc(-c4ccccc4OC)cc23)c1 | 0.018 |
| COc1ccccc1-c1cc2c(N[C@H](C)c3cccs3)ncnc2s1 | 0.055 |
| COc1ccccc1-c1cc2c(NCc3ccccn3)ncnc2s1 | 0.183 |
| COc1ccccc1-c1cc2c(NC(C)c3ccccc3)ncnc2s1 (racemic) | 0.019 |
| OC[C@H](Nc1ncnc2sc(Br)cc12)c1ccccc1 | > 10 |

Each compound was assayed against T1, Epidermal growth factor receptor (assay: Inhibition of EGFR (unknown origin) after 40 mins by scintillation proximity assay).

| IC50 [µM] | SMILES |
| --- | --- |
| 0.109 | Fc1cccc(COc2ccc(Nc3ncnc4sc(C#CC5CCCN5)cc34)cc2Cl)c1 (centres undefined) |
